Molecules are shown by their SMILES.

In the assay the target is T1, Urotensin-2 receptor (Homo sapiens, UniProt Q9UKP6).
T1 sequence (Q9UKP6 whole entry): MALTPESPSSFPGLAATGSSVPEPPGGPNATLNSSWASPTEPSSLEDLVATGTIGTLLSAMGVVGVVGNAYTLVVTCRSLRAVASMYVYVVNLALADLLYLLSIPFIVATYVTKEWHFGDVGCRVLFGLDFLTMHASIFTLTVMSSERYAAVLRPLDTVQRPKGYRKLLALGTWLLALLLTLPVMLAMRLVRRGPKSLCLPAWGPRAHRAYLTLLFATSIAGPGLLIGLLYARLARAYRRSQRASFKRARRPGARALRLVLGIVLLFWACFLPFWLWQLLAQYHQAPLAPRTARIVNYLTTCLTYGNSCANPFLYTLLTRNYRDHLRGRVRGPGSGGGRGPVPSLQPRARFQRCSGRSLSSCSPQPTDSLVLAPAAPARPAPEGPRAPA
The experiment in a line: Agonist activity for human Urotensin 2 receptor. Format: functional.
The compound `CN(C)CCC1(c2ccc(Cl)cc2)Cc2ccccc2C(=O)O1` (stereo not drawn) showed a concentration for a half-maximal effect (EC50) of 0.3 µM.
In turn, `CCN(CC)CCC1=C(c2ccccc2)NC(=O)N(C)C1c1ccc(Cl)cc1` (stereo not drawn) had an EC50 of 5 µM.
The same measure for `CCN(CC)CCC1C(c2ccccc2)=Nc2ccccc2SC1c1ccc(Cl)cc1` (stereo not drawn): 6.3 µM.

The EC50 is the concentration needed to bring the measured effect to its halfway point.

For the origin of these results see ChEMBL document CHEMBL1143570, “Architecture of the human urotensin II receptor: comparison of the binding domains of peptide and non-peptide urotensin II agonists” (J Med Chem, 2005).
